For the test, the system named is Plasmodium falciparum. In words: MMV: Compounds (1uM) were screened in a 72hr growth assay monitored by flow cytometry both in the presence and absence of supplemental isopentenyl pyrophosphate (IPP) 200uM. Compounds which fail to show anti-malarial activity when chemically rescued by IPP are therefore specific to the apicoplast. The values are expressed as the ratio of the corresponding activity with and without IPP, respectively. It is filed as functional, W2. In general terms: Flow cytometry measures light scatter and fluorescence of single cells or particles in a stream.
For `COc1ccc(-c2cc3c(nn2)-c2ccccc2C3=O)cc1`, the Ratio is 1.105.

Turning to `c1ccc(/C2=N/c3ccccc3/N=C(/c3ccccc3)c3ccccc32)cc1`, the Ratio is 0.807.

For `COc1ccc(C2c3ccc4ccccc4c3Oc3ncn(CCCn4ccnc4)c(=N)c32)cc1OC` (stereo not given), the Ratio is on record as 1.051.

Turning to `CN(N=O)C1=C(NC2CCCCC2)C(=O)c2ccccc2C1=O`, the Ratio stood at 1.071.

On to `O=C1c2ccccc2-c2nnc(-c3ccc(Br)cc3)cc21`, for which the Ratio stood at 0.8889.

For `CCOC(=O)C1=C(C)N=c2sc(=Cc3ccccc3O)c(=O)n2C1c1ccc(OC)c2ccccc12` (stereo not given), the Ratio was 1.667.

With `CCOC(=O)C1=C(C)N=c2sc(=Cc3cc(Cl)ccc3O)c(=O)n2C1c1ccc(OC)cc1` (stereo not given), the Ratio worked out at 1.255.

`Cc1nc2ccccc2c(O)c1CC=C(Cl)Cl`: the Ratio came out at 1.066.

As to `FC(F)(F)c1cccc(Nc2nc3ccccc3nc2Nc2cccc(C(F)(F)F)c2)c1`, the Ratio was found to be 1.08.

As for `COc1ccc(CN2CCCC(C(=O)c3ccc(C(F)(F)F)cc3)C2)c(O)c1` (stereo not given), the Ratio was determined as 0.8852.

For `O=c1nc(C=Cc2ccc(Br)cc2)oc2ccccc12`, the Ratio is given as 1.133.

In the case of `COc1ccc2nc(N)nc(C)c2c1`, the Ratio is listed as 0.8974.

`CC(=O)c1ccc(NC(=O)CSc2nc(-c3ccccc3Cl)ns2)cc1`: the Ratio turned out to be 1.02.

As for `O=C(NC1CCCCC1)C(c1cccs1)N(CCc1ccccc1)C(=O)c1ccco1` (stereo not given), the Ratio is on record as 0.9135.

For the compound `COc1ccc(C(=O)NC(c2ccc(Cl)cc2Cl)c2cc(Cl)c3cccnc3c2O)cc1` (stereo not given), the Ratio came out at 0.9814.

`CCC(=O)Nc1nnc(Cc2ccc(OC)c(OC)c2)s1`: the Ratio came to 0.7213.

With `Cl.c1ccc2c(NCCCCCCNc3c4c(nc5ccccc35)CCCC4)c3c(nc2c1)CCCC3`, the Ratio turned out to be 1.108.

As for `Brc1ccc(Nc2nc3ccccc3nc2Nc2ccc(Br)cc2)cc1`, the Ratio stood at 0.8871.

Consider `O=C(NCCCN1CCC(N2CCCCC2)CC1)C1=Cc2cc(Br)ccc2OC1`, for which the Ratio worked out at 0.8966.

On to `O=C(NC1CCN(Cc2ccccc2)CC1)c1cc(C(=O)NC2CCN(Cc3ccccc3)CC2)cc(C(=O)NC2CCN(Cc3ccccc3)CC2)c1`, for which the Ratio amounted to 1.119.

`Cc1ccnc(NC(c2cccc(OCc3ccccc3)c2)c2ccc3cccnc3c2O)c1` (stereo not given): the Ratio is listed as 1.558.

`Nc1ccc(-c2nc3cc(Cc4ccc5[nH]c(-c6ccc(N)cc6)nc5c4)ccc3[nH]2)cc1`: the Ratio is reported as 1.333.

As to `CCCCOC(=O)c1ccc(Nc2cc(C)nc3ccc(OC)cc23)cc1`, the Ratio worked out at 1.132.

As for `Cc1cc(Nc2ccc(OCc3ccccc3)cc2)nc2cc(O)ccc12`, the Ratio was found to be 0.8026.

In the case of `CCN(CC)CCNc1ccnc2cc3ccccc3cc12.O=P(O)(O)O`, the Ratio is 1.056.

Regarding `N=c1c2ccccc2nnn1-c1cccc(C(F)(F)F)c1`, the Ratio worked out at 1.0625.

As to `COc1cc(-c2nc(-c3ccc(Sc4ccccc4)cc3)c(-c3ccccc3)[nH]2)cc(OC)c1O`, the Ratio worked out at 1.071.

Regarding `O=c1cc(NC2CCN(CCCc3ccccc3)CC2)c2cc(Cl)ccc2o1`, the Ratio stood at 1.019.

With `Cc1ccc(OCCCCCCNCCO)c(C)c1`, the Ratio is given as 0.8556.

Turning to `COc1ccc(C2NCCc3c2[nH]c2ccccc32)cc1CN1CCN(c2ccc(F)cc2)CC1.Cl` (stereo not given), the Ratio is given as 0.8727.

For the compound `OC(Cn1nnc2ccccc21)Cn1c2ccc(Br)cc2c2cc(Br)ccc21` (stereo not given), the Ratio is 0.9531.

As to `CCOc1ccc(-n2cc(-c3ccccc3)c3c(SCc4cc(C)ccc4C)ncnc32)cc1`, the Ratio came out at 0.9394.

`Cc1ccc(C)c(Cn2c(N3CCC(C(=O)NCc4cccs4)CC3)nc3ccccc32)c1`: the Ratio was found to be 1.

Turning to `Cc1ccccc1OCCSc1nc2ccc(NC(=O)c3cccs3)cc2s1`, the Ratio worked out at 0.9467.

Take `CC1CCN(Cc2c(O)ccc3cc(-c4nc5ccccc5s4)c(=O)oc23)CC1`: the Ratio is 1.058.

Regarding `Cc1ccc2cc3c(N)c4c(C)ccc(C)c4nc3nc2c1`, the Ratio came to 1.095.

In the case of `CC(C)CCNCC(O)Cn1c2ccccc2c2ccccc21.Cl` (stereo not given), the Ratio is given as 0.9245.

Turning to `COc1ccc(C2C(C(=O)Nc3cccc(OC)c3)c3ccccc3C(=O)N2C2CCCCC2)cc1` (stereo not given), the Ratio is reported as 0.7969.

Take `CCOC(=O)c1cnc2ccc(Cl)cc2c1NCCCN(C)C`: the Ratio was found to be 1.179.

For the compound `c1ccc2c(NCCc3c[nH]c4ccccc34)c3ccccc3nc2c1`, the Ratio worked out at 1.057.

Turning to `O=C(Nc1ccc(C23CC4CC(CC(c5ccccc5)(C4)C2)C3)cc1)c1cccs1`, the Ratio was 0.9231.

On to `CCN(CC)CCCNc1ccnc2cc3ccccc3cc12`, for which the Ratio worked out at 0.9344.

For `O=C1c2ccccc2C2=Nc3ccccc3SC(c3cccc(F)c3)C12` (stereo not given), the Ratio was 0.8676.

As to `Cc1ccccc1OCCSc1nc2ccc(NC(=O)c3ccccc3)cc2s1`, the Ratio is on record as 0.8842.

Take `CCOC(=O)c1cnc2c(C)cccc2c1Nc1ccc(C(C)=O)cc1`: the Ratio worked out at 1.3.

For the compound `O=C(Nc1ccc(-c2nc3cc4ccccc4cc3[nH]2)cc1)c1cccc(Br)c1`, the Ratio came out at 1.254.

Take `Cc1ccc(-c2nc3ccccc3o2)cc1NCc1cc(Cc2ccccc2)ccc1O`: the Ratio is reported as 1.167.

Turning to `Cc1ccc(C2CC(C(F)(F)F)n3nc(C(=O)N4CCN(C(c5ccccc5)c5ccccc5)CC4)cc3N2)cc1` (stereo not given), the Ratio stood at 0.725.

For the compound `Cc1ccc2nc(C)cc(Nc3cccc(C(F)(F)F)c3)c2c1.Cl`, the Ratio came to 0.875.

Turning to `CC(C)(C)c1ccc(C(=O)Nc2c3c(nn2-c2cccc(Cl)c2)CSC3)cc1`, the Ratio turned out to be 0.9138.

For `CCOc1cc2c(cc1OCC)C(c1cc(Cl)c(O)c(OCC)c1)NCC2` (stereo not given), the Ratio amounted to 0.8824.

Consider `COc1ccc(N2CCN(C(CNC(=O)CC(C)(C)C)c3ccc4c(c3)OCO4)CC2)cc1` (stereo not given), for which the Ratio is on record as 0.8841.

As for `COc1cccc(C(=O)NC(c2ccc(C)cc2)c2cc(Cl)c3cccnc3c2O)c1` (stereo not given), the Ratio came out at 1.1.

Regarding `COc1ccc(C(O)(CCC(C)C)C(CN2CCOCC2)c2ccc(Cl)cc2)cc1.Cl` (stereo not given), the Ratio is given as 1.06.

As for `CCCCCCn1c(=N)n(CC(O)COc2cccc(C)c2)c2ccccc21.Cl` (stereo not given), the Ratio turned out to be 0.9831.

As for `COc1ccc(-c2cc(=O)oc3c4c(ccc23)OCN(Cc2ccc(F)cc2)C4)cc1`, the Ratio is given as 0.9508.

As to `CCOC(=O)C1(Cc2ccccc2)CCN(Cc2cccc(OC)c2O)CC1`, the Ratio is recorded as 0.7015.

In the case of `CCCOCc1cc(CN2CCN(c3cccc(Cl)c3)CC2)c(O)c2ncccc12`, the Ratio is 0.9844.

`O=C(Cc1ccccc1)NC(c1ccc(Cl)cc1)c1c(O)ccc2ccccc12` (stereo not given): the Ratio is reported as 0.873.

`Oc1ccc(C(=C(Cl)Cl)c2ccc(O)cc2)cc1`: the Ratio was found to be 1.113.

With `CCOc1ccc2c(c1)CN(Cc1ccc(Cl)cc1)CO2`, the Ratio was 0.8361.

Take `CC(C)(C)c1ccc2c(c1)CN(Cc1ccc(Cl)cc1)CO2`: the Ratio was found to be 0.8966.

`CCCCC(O)(c1ccc(Cl)cc1)C(CN1CCOCC1)c1ccc(Cl)cc1.Cl` (stereo not given): the Ratio was determined as 1.074.

In the case of `COc1ccc(OC)c(C2C3=C(CC(C)(C)CC3=O)N(c3ccc(Cl)c(Cl)c3)C3=C2C(=O)CC(C)(C)C3)c1`, the Ratio came out at 0.9277.

As for `COc1ccc(C(=O)NC(c2ccccc2Cl)c2cc(Cl)c3cccnc3c2O)cc1` (stereo not given), the Ratio turned out to be 1.365.

Turning to `Cc1cccc(N2C(=O)C3C(C2=O)C2(c4ccccc4)C(=O)C3(c3ccccc3)C(c3ccc4c(c3)OCO4)=C2c2ccc3c(c2)OCO3)c1` (stereo not given), the Ratio amounted to 0.9857.

Turning to `Cc1cc(=O)oc2c1ccc1oc(C(=O)c3ccccc3)c(C)c12`, the Ratio came to 1.067.

As to `COc1ccc(CN2CCN(Cc3ccccc3)CC2)c(O)c1`, the Ratio is given as 1.283.

In the case of `COc1ccc2c(c1OC)C(=O)N1c3ccccc3N=C(c3ccc(C)cc3)CC21` (stereo not given), the Ratio is 1.052.

Take `CCCCCCc1cc(O)c2c3c(c(=O)oc2c1)CCC(C)C3` (stereo not given): the Ratio is 1.073.

`Cl.OC(CNCc1ccccc1)Cn1c2ccccc2c2ccccc21` (stereo not given): the Ratio is given as 0.9403.

For `CCCc1c(C)nc2ccc(Br)cc2c1O`, the Ratio worked out at 1.

Regarding `COc1ccc(CCNC(=O)c2cc(S(=O)(=O)N3CC(C)CC(C)C3)ccc2Sc2ccc(F)cc2)cc1OC` (stereo not given), the Ratio is 1.061.

As to `Cc1ccc(F)cc1NC(=O)c1cc(Cl)ccc1Nc1ccccc1`, the Ratio came to 1.055.

For `CCOc1ccc(Nc2c3ccccc3nc3ccccc23)cc1.Cl`, the Ratio worked out at 1.

With `CC1=C(CC(=O)c2cccc([N+](=O)[O-])c2)C(=O)c2ccccc2C1=O`, the Ratio is given as 1.085.

In the case of `OC1CCCCC1C1(NC(=S)Nc2ccccc2)CCCCC1` (stereo not given), the Ratio was determined as 0.9298.

`OC1=C2C(=Nc3ccccc3SC2c2ccc(Br)cc2)c2ccccc21` (stereo not given): the Ratio is reported as 1.068.

Consider `COc1ccc(C)c2sc(N(Cc3cccnc3)C(=O)c3ccc(C#N)cc3)nc12`, for which the Ratio is listed as 0.971.

On to `CCCCCCc1cc2cc(-c3nc4ccccc4[nH]3)c(=Nc3ccccc3C)oc2cc1O`, for which the Ratio was found to be 0.9685.

Consider `CCCCCCC(O)(c1ccc(F)cc1)C(CN1CCOCC1)c1ccccc1.Cl` (stereo not given), for which the Ratio was 0.9077.

As to `COc1cc(OC)cc(N2C(=O)N(Cc3ccc(C(C)(C)C)cc3)c3ccccc3S2(=O)=O)c1`, the Ratio worked out at 0.9143.

As to `CCOc1c(Br)cc(C2C(C(=O)OC)=CN(C)C=C2C(=O)OC)cc1OC`, the Ratio is recorded as 1.02.

As to `COc1ccc(C(=O)C2CC2c2ccc(Cl)cc2)cc1` (stereo not given), the Ratio came to 1.308.

In the case of `CCCCCn1c(=N)n(CC(O)COc2cccc(C)c2)c2ccccc21.Cl` (stereo not given), the Ratio worked out at 1.128.

On to `CN(C)c1ccc(N=Cc2ccc(N3CCOCC3)cc2)cc1`, for which the Ratio is on record as 0.9558.

Consider `COc1ccccc1N1C(=N)SC(=Cc2ccc(OCc3ccccc3F)cc2)C1=O`, for which the Ratio came out at 1.033.

With `CCN1CCN(c2c(C(=O)c3ccccc3)cnc3cc(OC)c(OC)cc23)CC1`, the Ratio is recorded as 0.9828.

As to `Cc1ccc(S(=O)(=O)c2c(COC(=O)c3cccc(C)c3)c(-c3ccccc3)nn2C)cc1`, the Ratio is recorded as 0.9265.

For `CCOC(=O)c1c[nH]c2c(CC)cccc2c1=O`, the Ratio worked out at 0.8986.

The values above are taken from ChEMBL document CHEMBL2448809, “UCSF DeRisi Lab MMV Box Apicoplast Screening”.
